Source: patent US4277474A, “Treatment of allergic symptoms with propanone derivatives” (Nippon Zoki Pharmaceutical Co., Ltd., priority 1978, dated 1981)
Where a name gives a salt, the structure may show the parent alone.

Experiments:
[1] = test system: Peritoneal cavity cells; assay: Inhibitory effect on histamine release from sensitized peritoneal cavity cells; type: cell-based, rat (Wistar-strain); design: Released histamine, fluorescence intensity / Residual histamine, fluorescence intensity / Total histamine, fluorescence intensity: unit not given here; conditions: for Histamine release rate / Net release rate / inhibition at 10 µM / Released histamine, fluorescence intensity / Residual histamine, fluorescence intensity / Total histamine, fluorescence intensity: 0.01 mM; for Net release rate: release not caused by antigen-antibody reaction deducted; for inhibition at 10 µM / inhibition at 100 µM: Rattus norvegicus; for inhibition at 100 µM: 0.1 mM, read-out: Inhibitory effect on histamine release
Experimental: The inhibitory effect on histamine release of the compounds according to the present invention was investigated as follows. […] These cells were suspended in a phosphoric acid buffer solution (containing 0.1% of gelatin) and each 0.5 ml portion of this suspension was taken in a polyethylene tube. 1 ml each of solutions of various concentrations of test compound and 0.5 ml of 200 μg/ml of ovalbumin solution were added therein. They were incubated for 20 minutes at 37° C. to measure the histamine release rate. The amount of histamine was measured by a modified Shore method using fluorescence.

[2] = test system: Hartley-strain male guinea pig; assay: Experimental atopic asthma in passively sensitized guinea pigs; type: in vivo; conditions: 50 mg/kg peroral
Experimental: [Levine, B. B. et al., J. Immunol., 106, 29(1971)] was injected at a dosage of 0.25 ml/guinea pig into the hearts of groups of Hartley-strain male guinea pig (a group consisting of four), each weighing 250-300 g, to make them passively sensitive. […] The rate of breathing and the ratio of expiration time to inspiration time were calculated from the velocity of breathing. As an antigen to induce the reaction 200 μg/kg of benzylpenicilloyl bovine serum albumin [(BPO)23 -BSA] obtained by the method of Levine et al. [Levine et al.; J. Clin. Invest., 47, 556 (1968)] was injected through a cannula into the jugular vein.

[3] = test system: homo PCA reaction; assay: Inhibitory effect on homo PCA reaction in rats; type: in vivo
[4] = Acute toxicity in mice (LD50, Litchfield-Wilcoxon); conditions: mouse, in vivo, ICR male mice
Experimental: Acute toxicity tests were carried out by intraperitoneal or peroral administration of the compound according to the present invention to groups of 10 ICR-strain male mice (weighing 20 g on the average), and each LD50 value was determined by Litchfield-Wilcoxon Method.

[5] = test system: SRS-A; assay: Anti-SRS-A effect on guinea pig's ileum (Magnus method)
Experimental: The anti-SRS-A effect of the compounds according to the present invention on guinea pig's ileum was measured by Magnus method. […] One minute thereafter, the ileum contraction inhibiting rate (%) was measured with use of 1 ml of 80% ethanol solution of SRS-A (150 mg/ml).

Cc1ccc(C(=O)C(C)CN2CCCCC2)cc1 (centres unmarked) [2,4'-dimethyl-3-piperidinopropiophenone, reference compound]
Histamine release rate [1]: 50.8%
Net release rate [1]: 36.9%
inhibition at 10 µM [1]: 0%
inhibition on the variation from the normal values exhibited in the control group (in words) [2]: less inhibitory effect than the compounds according to the present invention
Expiration/inspiration ([2]; 1 min, 1 h before induction): 90.2 ± 4.02%
Rate of breathing ([2]; 1 min, 1 h before induction): 120.6 ± 4.98%
Volume of breathing ([2]; 1 min, 1 h before induction): 123.4 ± 6.52%
Expiration/inspiration ([2]; 3 min, 1 h before induction): 93.9 ± 5.09%
Rate of breathing ([2]; 3 min, 1 h before induction): 98.5 ± 6.55%
Volume of breathing ([2]; 3 min, 1 h before induction): 92.6 ± 8.29%
Expiration/inspiration ([2]; 6 min, 1 h before induction): 94.3 ± 5.34%
Rate of breathing ([2]; 6 min, 1 h before induction): 89.5 ± 3.36%
Volume of breathing ([2]; 6 min, 1 h before induction): 96.7 ± 3.97%
Expiration/inspiration ([2]; 18 min, 1 h before induction): 96.6 ± 2.39%
Rate of breathing ([2]; 18 min, 1 h before induction): 91.3 ± 1.57%
Volume of breathing ([2]; 18 min, 1 h before induction): 90.6 ± 1.52%
Expiration/inspiration ([2]; 30 min, 1 h before induction): 94.8 ± 4.76%
Rate of breathing ([2]; 30 min, 1 h before induction): 93.3 ± 2.80%
Volume of breathing ([2]; 30 min, 1 h before induction): 91.4 ± 6.20%
Expiration/inspiration ([2]; 60 min, 1 h before induction): 93.9 ± 3.98%
Rate of breathing ([2]; 60 min, 1 h before induction): 86.9 ± 6.14%
Volume of breathing ([2]; 60 min, 1 h before induction): 90.9 ± 4.47%
Expiration/inspiration ([2]; 90 min, 1 h before induction): 104.3 ± 6.02%
Rate of breathing ([2]; 90 min, 1 h before induction): 84.6 ± 6.03%
Volume of breathing ([2]; 90 min, 1 h before induction): 91.0 ± 3.34%
Expiration/inspiration ([2]; 130 min, 1 h before induction): 107.0 ± 3.44%
Rate of breathing ([2]; 130 min, 1 h before induction): 87.3 ± 4.44%
Volume of breathing ([2]; 130 min, 1 h before induction): 94.9 ± 4.71%
Expiration/inspiration ([2]; 180 min, 1 h before induction): 109.3 ± 6.26%
Rate of breathing ([2]; 180 min, 1 h before induction): 87.5 ± 6.43%
Volume of breathing ([2]; 180 min, 1 h before induction): 93.8 ± 6.49%
Expiration/inspiration ([2]; before test): 100.0 ± 0.00%
Rate of breathing ([2]; before test): 100.0 ± 0.00%
Volume of breathing ([2]; before test): 100.0 ± 0.00%
inhibition of homo PCA reaction ([3]; 200 mg/Kg peroral): about 40%

CC(CN1CCCCC1)C(=O)c1ccc2ccccc2c1 (stereo not drawn) [Example 2, 2-methyl-3-piperidino-β-propionaphthone hydrochloride]
LD50 ([4]; ip, intraperitoneal): 120 mg/kg
LD50 ([4]; po, peroral): 370 mg/kg
ileum contraction inhibiting rate ([5]; 10^-4 g/ml): 76.0 ± 7.23%
ileum contraction inhibiting rate ([5]; 10^-5 g/ml): 53.7 ± 8.68%
ileum contraction inhibiting rate ([5]; 10^-6 g/ml): 10.0 ± 8.08%
Histamine release rate [1]: 38.6%
Released histamine, fluorescence intensity [1]: 184
Residual histamine, fluorescence intensity [1]: 292
Total histamine, fluorescence intensity [1]: 476
Net release rate [1]: 24.7%
inhibition at 10 µM [1]: 24.5%
inhibition at 100 µM [1]: 60%
Expiration/inspiration ([2]; 1 min, 1 h before induction): 78.4 ± 9.00%
Rate of breathing ([2]; 1 min, 1 h before induction): 120.8 ± 3.19%
Volume of breathing ([2]; 1 min, 1 h before induction): 108.2 ± 1.78%
Expiration/inspiration ([2]; 3 min, 1 h before induction): 108.7 ± 11.36%
Rate of breathing ([2]; 3 min, 1 h before induction): 90.3 ± 3.36%
Volume of breathing ([2]; 3 min, 1 h before induction): 86.7 ± 4.14%
Expiration/inspiration ([2]; 6 min, 1 h before induction): 99.8 ± 4.30%
Rate of breathing ([2]; 6 min, 1 h before induction): 92.2 ± 5.69%
Volume of breathing ([2]; 6 min, 1 h before induction): 90.3 ± 8.26%
Expiration/inspiration ([2]; 18 min, 1 h before induction): 106.5 ± 5.25%
Rate of breathing ([2]; 18 min, 1 h before induction): 91.6 ± 5.71%
Volume of breathing ([2]; 18 min, 1 h before induction): 86.0 ± 8.49%
Expiration/inspiration ([2]; 30 min, 1 h before induction): 100.3 ± 3.41%
Rate of breathing ([2]; 30 min, 1 h before induction): 96.4 ± 4.09%
Volume of breathing ([2]; 30 min, 1 h before induction): 93.7 ± 3.75%
Expiration/inspiration ([2]; 60 min, 1 h before induction): 97.0 ± 3.47%
Rate of breathing ([2]; 60 min, 1 h before induction): 96.2 ± 3.62%
Volume of breathing ([2]; 60 min, 1 h before induction): 96.6 ± 4.92%
Expiration/inspiration ([2]; 90 min, 1 h before induction): 96.5 ± 3.18%
Rate of breathing ([2]; 90 min, 1 h before induction): 94.0 ± 5.23%
Volume of breathing ([2]; 90 min, 1 h before induction): 97.6 ± 7.12%
Expiration/inspiration ([2]; 130 min, 1 h before induction): 106.4 ± 4.19%
Rate of breathing ([2]; 130 min, 1 h before induction): 94.3 ± 6.97%
Volume of breathing ([2]; 130 min, 1 h before induction): 92.1 ± 9.25%
Expiration/inspiration ([2]; 180 min, 1 h before induction): 108.7 ± 6.81%
Rate of breathing ([2]; 180 min, 1 h before induction): 98.2 ± 5.42%
Volume of breathing ([2]; 180 min, 1 h before induction): 97.8 ± 7.28%
Expiration/inspiration ([2]; before test): 100.0 ± 0.00%
Rate of breathing ([2]; before test): 100.0 ± 0.00%
Volume of breathing ([2]; before test): 100.0 ± 0.00%
inhibitory effect on homo PCA reaction, dose dependence (in words) [3]: their effects depended on the dose
inhibition of homo PCA reaction ([3]; 5 mg/Kg intravenous): 62.1%

CC(CN1CCOCC1)C(=O)c1ccc2ccccc2c1 (stereo not drawn) [Example 4, 2-methyl-3-morpholino-β-propionaphthone hydrochloride]
LD50 ([4]; ip, intraperitoneal): 190 mg/kg
LD50 ([4]; po, peroral): 540 mg/kg
ileum contraction inhibiting rate ([5]; 10^-4 g/ml): 96.7 ± 3.33%
ileum contraction inhibiting rate ([5]; 10^-5 g/ml): 36.3 ± 14.19%
ileum contraction inhibiting rate ([5]; 10^-6 g/ml): 13.0 ± 12.50%
Histamine release rate [1]: 44.2%
Released histamine, fluorescence intensity [1]: 212
Residual histamine, fluorescence intensity [1]: 268
Total histamine, fluorescence intensity [1]: 480
Net release rate [1]: 30.3%
inhibition at 10 µM [1]: 7.4%

Cc1ccc(C(=O)C(C)CN2CCCCC2)cc1C.Cl (centres unmarked) [Example 5, 2,3',4'-trimethyl-3-piperidinopropiophenone hydrochloride]
LD50 ([4]; ip, intraperitoneal): 117 mg/kg
LD50 ([4]; po, peroral): 325 mg/kg
ileum contraction inhibiting rate ([5]; 10^-4 g/ml): 100.0 ± 0%
ileum contraction inhibiting rate ([5]; 10^-5 g/ml): 67.7 ± 8.11%
ileum contraction inhibiting rate ([5]; 10^-6 g/ml): 12.3 ± 8.25%
Histamine release rate [1]: 42.9%
Released histamine, fluorescence intensity [1]: 210
Residual histamine, fluorescence intensity [1]: 280
Total histamine, fluorescence intensity [1]: 490
Net release rate [1]: 29.0%
inhibition at 10 µM [1]: 11.3%
Expiration/inspiration ([2]; 1 min, 1 h before induction): 77.6 ± 3.68%
Rate of breathing ([2]; 1 min, 1 h before induction): 122.0 ± 16.99%
Volume of breathing ([2]; 1 min, 1 h before induction): 100.5 ± 5.01%
Expiration/inspiration ([2]; 3 min, 1 h before induction): 92.3 ± 2.19%
Rate of breathing ([2]; 3 min, 1 h before induction): 93.7 ± 7.20%
Volume of breathing ([2]; 3 min, 1 h before induction): 86.9 ± 5.99%
Expiration/inspiration ([2]; 6 min, 1 h before induction): 98.7 ± 3.93%
Rate of breathing ([2]; 6 min, 1 h before induction): 93.7 ± 5.80%
Volume of breathing ([2]; 6 min, 1 h before induction): 86.4 ± 6.96%
Expiration/inspiration ([2]; 18 min, 1 h before induction): 97.7 ± 2.62%
Rate of breathing ([2]; 18 min, 1 h before induction): 99.9 ± 4.00%
Volume of breathing ([2]; 18 min, 1 h before induction): 86.3 ± 3.71%
Expiration/inspiration ([2]; 30 min, 1 h before induction): 103.2 ± 1.10%
Rate of breathing ([2]; 30 min, 1 h before induction): 92.5 ± 1.76%
Volume of breathing ([2]; 30 min, 1 h before induction): 86.6 ± 2.44%
Expiration/inspiration ([2]; 60 min, 1 h before induction): 94.3 ± 3.87%
Rate of breathing ([2]; 60 min, 1 h before induction): 97.0 ± 1.81%
Volume of breathing ([2]; 60 min, 1 h before induction): 93.5 ± 6.17%
Expiration/inspiration ([2]; 90 min, 1 h before induction): 96.7 ± 4.58%
Rate of breathing ([2]; 90 min, 1 h before induction): 90.7 ± 6.14%
Volume of breathing ([2]; 90 min, 1 h before induction): 93.5 ± 3.78%
Expiration/inspiration ([2]; 130 min, 1 h before induction): 106.2 ± 5.28%
Rate of breathing ([2]; 130 min, 1 h before induction): 92.9 ± 5.33%
Volume of breathing ([2]; 130 min, 1 h before induction): 87.4 ± 3.03%
Expiration/inspiration ([2]; 180 min, 1 h before induction): 100.1 ± 2.03%
Rate of breathing ([2]; 180 min, 1 h before induction): 97.5 ± 1.82%
Volume of breathing ([2]; 180 min, 1 h before induction): 95.1 ± 3.33%
Expiration/inspiration ([2]; before test): 100.0 ± 0.00%
Rate of breathing ([2]; before test): 100.0 ± 0.00%
Volume of breathing ([2]; before test): 100.0 ± 0.00%
inhibitory effect on homo PCA reaction, dose dependence (in words) [3]: their effects depended on the dose
inhibition of homo PCA reaction ([3]; 200 mg/Kg peroral): about 70%

CC(CN1CCCC1)C(=O)c1ccc2ccccc2c1 (stereo not drawn) [Example 6, 2-methyl-3-pyrrolidino-β-propionaphthone hydrochloride]
ileum contraction inhibiting rate ([5]; 10^-4 g/ml): 100.0 ± 0%
ileum contraction inhibiting rate ([5]; 10^-5 g/ml): 63.0 ± 6.66%
ileum contraction inhibiting rate ([5]; 10^-6 g/ml): 0.3 ± 0.33%
inhibition at 100 µM [1]: 48%

COc1ccc(C(=O)C(C)CN2CCCCC2)cc1.Cl (centres unmarked) [Example 25, 4'-methoxy-2-methyl-3-piperidinopropiophenone hydrochloride]
ileum contraction inhibiting rate ([5]; 10^-4 g/ml): 80.3 ± 7.22%
ileum contraction inhibiting rate ([5]; 10^-5 g/ml): 15.0 ± 14.50%
ileum contraction inhibiting rate ([5]; 10^-6 g/ml): 6.7 ± 6.67%

CCOc1ccc(C(=O)C(C)CN2CCCCC2)cc1.Cl (centres unmarked) [Example 26, 4'-ethoxy-2-methyl-3-piperidinopropiophenone hydrochloride]
ileum contraction inhibiting rate ([5]; 10^-4 g/ml): 86.7 ± 3.84%
ileum contraction inhibiting rate ([5]; 10^-5 g/ml): 12.3 ± 6.69%
ileum contraction inhibiting rate ([5]; 10^-6 g/ml): 6.7 ± 5.24%
